Laboratory results: patent US6696424B1, “Cytofectin dimers and methods of use thereof” (Vical Incorporated, priority 1999, dated 2004)

System: B16F10 melanoma tumors
Test: Subcutaneous melanoma tumor model, in vivo transfection with CAT reporter gene
Parameters: species or system BALB/C mice
Settings: cytofectin/CAT plasmid complex injected into tumor, tumors collected after forty-eight hours; averages; FIG. 3
Method: A) General Subcutaneous Tumor Transfection Assay. Tumors are prepared by injecting a suspension of tumor cells subcutaneously on the side of a mouse strain compatible with the specific tumor type. The tumors are periodically measured. Once the tumors reach a size suitable for injection, the tumor volume is approximated based on the measured diameter assuming a spherical tumor. A complex of the cytofectin compound to be evaluated with a plasmid encoding a reporter gene (e.g., CAT) in a volume of saline equal to the volume of the tumor to be treated is then injected at a flow rate optimized for the particular tumor type. After an appropriate time, the tumors are collected, frozen and then ground up. The reporter gene product is subsequently extracted and the quantity expressed is determined using extraction and assay conditions appropriate for the particular gene product. A variety of tumor types may be evaluated using this general technique. […]
B) Subcutaneous Melanoma Tumor Model. […] When the tumors reached 4.5 mm to 7.0 mm in diameter, the volume of each individual tumor was calculated by measuring the diameter of the tumor and assuming a spherical tumor. For each individual tumor, a volume of the cytofectin/CAT plasmid complex in saline equivalent to the calculated volume of the tumor was injected into the tumor at a rate of 2 ml/min. […] CAT activity was quantitated as described below. […]

| SMILES | CAT activity (relative transgene expression vs pDNA transfection alone) |
| --- | --- |
| CCCCCCCCCCCCCCOCC(C[N+](C)(C)CCCNC(=O)NCCCCNC(=O)NCCC[N+](C)(C)CC(COCCCCCCCCCCCCCC)OCCCCCCCCCCCCCC)OCCCCCCCCCCCCCC (centres unmarked) [SBGU-DMRIE] | greater activity than the naked DNA (pDNA) control |
| CCCCCCCCCCCCCCOCC(C[N+](C)(C)CCCNC(=O)NCCCCCCNC(=O)NCCC[N+](C)(C)CC(COCCCCCCCCCCCCCC)OCCCCCCCCCCCCCC)OCCCCCCCCCCCCCC (centres unmarked) [SHGU-DMRIE] | greater activity than the naked DNA (pDNA) control |
